Test results from patent US12558428B2, “Heterobifunctional compounds and their use in treating disease” (Halda Therapeutics OpCo, Inc., priority 2024, dated 2026).
Like-named read-outs stand apart in the source and are kept apart here.

Key:
Format in all cases: cell-based
[1] = tested on: T-Rex 293 cells lacking increased expression of estrogen receptor alpha protein; assay: Cellular growth inhibition assay, T-Rex 293 cells, (−) doxycycline; conditions: T-REx-293, 72 h, 72 hours
How it was run: (§1)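 Growth of a doxycycline-inducible ERα T-Rex 293 clone, induced or not with 3 ng/mL doxycycline, was followed for 72 h with test compound in hormone-depleted medium. CellTiter-Glo luminescence gave GI50.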

[2] = tested on: T-Rex 293 cells having increased expression of estrogen receptor alpha protein; assay: Cellular growth inhibition assay, T-Rex 293 cells, (+) doxycycline; conditions: T-REx-293, 72 h, 72 hours
How it was run: as §1

[3] = tested on: MCF7 cells (ATCC #HTB-22); assay: Cellular growth inhibition assay, MCF7 cells purchased from ATCC; conditions: Homo sapiens, MCF7, 144 h, Table 8-A; MCF7 cells purchased from ATCC; six days; CellTiter-Glo; read-out: GI50
How it was run: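 GI50 values come from a four-parameter fit of CellTiter-Glo 2.0 luminescence after six days of compound exposure at 37° C. Seeding density depended on the source: 225 cells/well for ECACC MCF7, 1,500 for ATCC. Medium was RPMI 1640 with 10% FBS and 0.2 U/ml insulin.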

[4] = Table 7-A, T-Rex 293 cells without doxycycline (lacking increased ERα expression), CellTiter-Glo, read-out: (−) Dox GI50
[5] = Table 7-A, T-Rex 293 cells with doxycycline (increased ERα expression), CellTiter-Glo, read-out: (+) Dox GI50

SMILES	GI50 [3] [nM]	GI50 [1, 4] [nM]	GI50 [2, 5] [nM]	GI50 ([1]; T-Rex 293 cells without doxycycline, CellTiter-Glo 2.0, read-out: (−) Dox TRex ERa (GI50)) [nM]	GI50 ([2]; T-Rex 293 cells with doxycycline-induced ERα expression, CellTiter-Glo 2.0, read-out: (+) Dox TRex ERa (GI50)) [nM]
CC1=C(c2c(F)cc(F)cc2F)[C@@H](c2ccc(OCC(=O)N3CCCC4(CCN(c5ccc(C6=N[C@@H](Cc7ncco7)c7nnc(C)n7-c7sc(C)c(C)c76)cc5)C4)C3)cc2)Oc2ccc(O)cc21 (stereo partly drawn) [V-34]	50 to 500	50 to 500	50 to 500		
Cc1sc2c(c1C)C(c1ccc(OCCOCCCN3CC[C@H](Oc4ccc(C5=C(c6ccc(Cl)cc6Cl)CCCc6cc(C(=O)O)ccc65)cc4)C3)cc1)=N[C@@H](C)c1nnc(C)n1-2 [I-32, 8-(2,4-dichlorophenyl)-9-(4-(((S)-1-(3-(2-(4-((S)-2,3,6,9-tetramethyl-6H-thieno[3,2-f][1,2,4]triazolo[4,3-a][1,4]diazepin-4-yl)phenoxy)ethoxy)propyl)pyrrolidin-3-yl)oxy)phenyl)-6,7-dihydro-5H-benzo[7]annulene-3-carboxylic acid]	50 to 500			500 to 2500	< 50
Cc1sc2c(c1C)C(c1ccc(C3CN(CC4(O)CCN(CC5CN(c6ccc(C7=C(c8ccccc8)CCCc8cc(C(=O)O)ccc87)cc6)C5)CC4)C3)cc1)=N[C@@H](C)c1nnc(C)n1-2 [IV-46]	50 to 500	500 to 2500	< 50		
CC1=C(c2c(F)cc(F)cc2F)[C@@H](c2ccc(C3CCN(CC4(O)CCN(c5ccc(C6=N[C@@H](C)c7nnc(C)n7-c7sc(C)c(C)c76)cc5)CC4)CC3)cc2)Oc2ccc(O)cc21 [V-32]	50 to 500	500 to 2500	< 50		
Cc1sc2c(c1C)C(c1ccc(N3CCC(O)(CN4CCN(c5ccc(C6=C(c7ccccc7)CCCc7cc(B(O)O)ccc76)cc5)CC4)CC3)cc1)=N[C@@H](C)c1nnc(C)n1-2 [IV-63]	< 50	500 to 2500	< 50		
Cc1sc2c(c1C)C(c1ccc(N3CCC(O)(CN4CCN(c5ccc(C6=C(c7ccc(Cl)c(Cl)c7)CCCc7cc(C(=O)O)ccc76)cc5)CC4)CC3)cc1)=N[C@@H](C)c1nnc(C)n1-2 [IV-52]	50 to 500	500 to 2500	50 to 500		

The next lines start with results.

GI50 [3] [nM]	SMILES	GI50 [1, 4] [nM]	GI50 [2, 5] [nM]	GI50 ([1]; T-Rex 293 cells without doxycycline, CellTiter-Glo 2.0, read-out: (−) Dox TRex ERa (GI50)) [nM]	GI50 ([2]; T-Rex 293 cells with doxycycline-induced ERα expression, CellTiter-Glo 2.0, read-out: (+) Dox TRex ERa (GI50)) [nM]
< 50	Cc1sc2c(c1C)C(c1ccc(N3CC[C@@H](CNCCOc4ccc([C@@H]5c6ccc(O)cc6CC[C@@H]5c5ccccc5)cc4)C3)cc1)=NC(Cc1ncco1)c1nnc(C)n1-2 (stereo partly drawn) [III-61]	50 to 500	< 50		
50 to 500	Cc1sc2c(c1C)C(c1ccc(NCC3CCN(CCOc4ccc([C@@H]5c6ccc(O)cc6CC[C@@H]5c5ccccc5)cc4)CC3)cc1)=NC(Cc1ncco1)c1nnc(C)n1-2 (stereo partly drawn) [III-33]	50 to 500	< 50		
50 to 500	Cc1sc2c(c1C)C(c1ccc(N3CCC4(CC3)CC(NCCOc3ccc([C@@H]5c6ccc(O)cc6CC[C@@H]5c5ccccc5)cc3)C4)cc1)=NC(Cc1ncco1)c1nnc(C)n1-2 (stereo partly drawn) [III-65]	50 to 500	< 50		
50 to 500	Cc1sc2c(c1C)C(c1ccc(N3CCC(O)(CN4CCN(c5ccc([C@@H]6c7ccc(C(=O)O)cc7CC[C@@H]6c6ccccc6)cc5)CC4)CC3)cc1)=N[C@H](Cc1ncco1)c1nnc(C)n1-2 [III-201]	50 to 500	50 to 500		
500 to 2500	Cc1sc2c(c1C)C(c1ccc(N3CCN(CC4CCN(c5ccc([C@@H]6c7ccc(O)cc7CC[C@@H]6c6ccccc6)cc5)CC4)CC3)cc1)=N[C@H](Cc1nccs1)c1nnc(C)n1-2 [III-231]	> 2500	> 2500		
50 to 500	Cc1sc2c(c1C)C(c1ccc(N3CCC4(CC3)CN(CCOc3ccc([C@@H]5c6ccc(O)cc6CC[C@@H]5c5ccccc5)cc3)C4)cc1)=N[C@@H](C)c1nnc(C)n1-2 [III-78]	50 to 500	50 to 500		
50 to 500	Cc1sc2c(c1C)C(c1ccc(N3CC(N4CCN(Cc5ccc([C@@H]6c7ccc(O)cc7CC[C@@H]6c6ccccc6)cc5)CC4)C3)cc1)=N[C@@H](Cc1ncco1)c1nnc(C)n1-2 [III-124]	500 to 2500	50 to 500		
50 to 500	Cc1sc2c(c1C)C(c1ccc(N3CCC(O)(CN4CCN(c5ccc([C@H]6c7ccc(O)cc7CC[C@H]6c6ccccc6)nn5)CC4)CC3)cc1)=N[C@H](Cc1ncco1)c1nnc(C)n1-2 [III-224]	> 2500	> 2500		
